In US20230085307A1, “PYRIDAZINONE COMPOUND AND HERBICIDE” (NISSAN CHEMICAL CORPORATION, priority 2019, published 2023):

How the values were obtained:
wild oat [1] = experiment: Test Example 5: herbicidal effect by foliage application, plastic box (Table 20, symbol I); format: in vivo, wild oat (Avena fatua); details: 320 g/ha, foliage application after 14-day growth, evaluated three weeks after application
Outline: (§1)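 Sow seeds spot-wise in sterilized diluvial soil; cover with ~1.5 cm soil. Grow 14 days in greenhouse, 25° C. to 30° C. Spray foliage with emulsion diluted to predetermined amount. Rate effect after 3 weeks.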

lambsquarters [2] = experiment: Test Example 5: herbicidal effect by foliage application, plastic box (Table 20, symbol O); format: in vivo, lambsquarters (Chenopodium album); details: 320 g/ha, foliage application after 14-day growth, evaluated three weeks after application
Outline: as §1

lambsquarters [3] = experiment: Test Example 4: herbicidal effect by soil treatment (Table 19, symbol O); format: in vivo, lambsquarters (Chenopodium album); details: amount of applied herbicide 320 g/ha
Outline: (§2)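 Applied as a water-diluted emulsion, the compound was sprayed onto soil covering newly sown seeds. Evaluation came three weeks after application, in a greenhouse held at 25° C. to 30° C.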

Japanese bulrush = experiment: Test Example 1: herbicidal activity, application before weed generation under submerged conditions (Table 16, symbol B); format: in vivo, Japanese bulrush (Schoenoplectus juncoides); details: amount of applied herbicide 320 g/ha
Outline: (§3)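 Emulsion formulation, water-diluted to set dose, was put onto the flooded surface (4 cm depth, alluvial soil) the same day weeds were sown and 2.5-leaf rice transplanted. After 3 weeks at 25-30 °C under glass, each species was rated 0 (≤5% kill) to 5 (≥90% kill).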

rice flat sedge = experiment: Test Example 3: herbicidal effect by foliage application, Wagner pot (Table 18, symbol E); format: in vivo, rice flat sedge (Cyperus iria); details: 320 g/ha
Outline: (§4)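 Plants were sown in alluvial soil held under 0.1–0.5 cm standing water and grown 14 days in a greenhouse at 25–30 °C. An emulsifiable formulation, water-diluted to the set dose, was then sprayed onto the foliage, and effects were scored three weeks later using previously defined criteria.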

barnyard grass [4] = experiment: Test Example 5: herbicidal effect by foliage application, plastic box (Table 20, symbol H); format: in vivo, barnyard grass (Echinochloa crus-galli); details: 320 g/ha, foliage application after 14-day growth, evaluated three weeks after application
Outline: as §1

persian speedwell [5] = experiment: Test Example 4: herbicidal effect by soil treatment (Table 19, symbol R); format: in vivo, Persian speedwell (Veronica persica); details: amount of applied herbicide 320 g/ha
Outline: as §2

Italian ryegrass [6] = experiment: Test Example 4: herbicidal effect by soil treatment (Table 19, symbol K); format: in vivo, Italian ryegrass (Lolium multiflorum); details: amount of applied herbicide 320 g/ha
Outline: as §2

southern crabgrass [7] = experiment: Test Example 4: herbicidal effect by soil treatment (Table 19, symbol F); format: in vivo, southern crabgrass (Digitaria ciliaris); details: amount of applied herbicide 320 g/ha
Outline: as §2

persian speedwell [8] = experiment: Test Example 5: herbicidal effect by foliage application, plastic box (Table 20, symbol R); format: in vivo, Persian speedwell (Veronica persica); details: 320 g/ha, foliage application after 14-day growth, evaluated three weeks after application
Outline: as §1

barnyard grass [9] = experiment: Test Example 3: herbicidal effect by foliage application, Wagner pot (Table 18, symbol H); format: in vivo, barnyard grass (Echinochloa crus-galli); details: 320 g/ha
Outline: as §4

chickweed [10] = experiment: Test Example 5: herbicidal effect by foliage application, plastic box (Table 20, symbol P); format: in vivo, common chickweed (Stellaria media); details: 320 g/ha, foliage application after 14-day growth, evaluated three weeks after application
Outline: as §1

velvetleaf [11] = experiment: Test Example 5: herbicidal effect by foliage application, plastic box (Table 20, symbol M); format: in vivo, velvetleaf (Abutilon theophrasti); details: 320 g/ha, foliage application after 14-day growth, evaluated three weeks after application
Outline: as §1

Italian ryegrass [12] = experiment: Test Example 5: herbicidal effect by foliage application, plastic box (Table 20, symbol K); format: in vivo, Italian ryegrass (Lolium multiflorum); details: 320 g/ha, foliage application after 14-day growth, evaluated three weeks after application
Outline: as §1

blackgrass [13] = experiment: Test Example 4: herbicidal effect by soil treatment (Table 19, symbol J); format: in vivo, blackgrass (Alopecurus myosuroides); details: amount of applied herbicide 320 g/ha
Outline: as §2

windgrass [14] = experiment: Test Example 4: herbicidal effect by soil treatment (Table 19, symbol L); format: in vivo, windgrass (Apera spica-venti); details: amount of applied herbicide 320 g/ha
Outline: as §2

Chinese sprangletop = experiment: Test Example 3: herbicidal effect by foliage application, Wagner pot (Table 18, symbol D); format: in vivo, chinese sprangletop (Leptochloa chinensis); details: 320 g/ha
Outline: as §4

green foxtail [15] = experiment: Test Example 4: herbicidal effect by soil treatment (Table 19, symbol G); format: in vivo, green foxtail (Setaria viridis); details: amount of applied herbicide 320 g/ha
Outline: as §2

velvetleaf [16] = experiment: Test Example 4: herbicidal effect by soil treatment (Table 19, symbol M); format: in vivo, velvetleaf (Abutilon theophrasti); details: amount of applied herbicide 320 g/ha
Outline: as §2

wild oat [17] = experiment: Test Example 4: herbicidal effect by soil treatment (Table 19, symbol I); format: in vivo, wild oat (Avena fatua); details: amount of applied herbicide 320 g/ha
Outline: as §2

redroot pigweed [18] = experiment: Test Example 4: herbicidal effect by soil treatment (Table 19, symbol N); format: in vivo, redroot pigweed (Amaranthus retroflexus); details: amount of applied herbicide 320 g/ha
Outline: as §2

barnyard grass [19] = experiment: Test Example 4: herbicidal effect by soil treatment (Table 19, symbol H); format: in vivo, barnyard grass (Echinochloa crus-galli); details: amount of applied herbicide 320 g/ha
Outline: as §2

blackgrass [20] = experiment: Test Example 5: herbicidal effect by foliage application, plastic box (Table 20, symbol J); format: in vivo, blackgrass (Alopecurus myosuroides); details: 320 g/ha, foliage application after 14-day growth, evaluated three weeks after application
Outline: as §1

green foxtail [21] = experiment: Test Example 5: herbicidal effect by foliage application, plastic box (Table 20, symbol G); format: in vivo, green foxtail (Setaria viridis); details: 320 g/ha, foliage application after 14-day growth, evaluated three weeks after application
Outline: as §1

late watergrass = experiment: Test Example 1: herbicidal activity, application before weed generation under submerged conditions (Table 16, symbol A); format: in vivo, late watergrass (Echinochloa oryzicola); details: amount of applied herbicide 320 g/ha
Outline: as §3

windgrass [22] = experiment: Test Example 5: herbicidal effect by foliage application, plastic box (Table 20, symbol L); format: in vivo, windgrass (Apera spica-venti); details: 320 g/ha, foliage application after 14-day growth, evaluated three weeks after application
Outline: as §1

false cleavers = experiment: Test Example 4: herbicidal effect by soil treatment (Table 19, symbol Q); format: in vivo, false cleavers (Galium spurium); details: amount of applied herbicide 320 g/ha
Outline: as §2

southern crabgrass [23] = experiment: Test Example 5: herbicidal effect by foliage application, plastic box (Table 20, symbol F); format: in vivo, southern crabgrass (Digitaria ciliaris); details: 320 g/ha, foliage application after 14-day growth, evaluated three weeks after application
Outline: as §1

oval-leafed pondweed = experiment: Test Example 1: herbicidal activity, application before weed generation under submerged conditions (Table 16, symbol C); format: in vivo, oval-leafed pondweed (Monochoria vaginalis); details: amount of applied herbicide 320 g/ha
Outline: as §3

chickweed [24] = experiment: Test Example 4: herbicidal effect by soil treatment (Table 19, symbol P); format: in vivo, common chickweed (Stellaria media); details: amount of applied herbicide 320 g/ha
Outline: as §2

redroot pigweed [25] = experiment: Test Example 5: herbicidal effect by foliage application, plastic box (Table 20, symbol N); format: in vivo, redroot pigweed (Amaranthus retroflexus); details: 320 g/ha, foliage application after 14-day growth, evaluated three weeks after application
Outline: as §1

## CSc1ccc(-c2sc3c(F)cccc3c2-c2c(O)c(C)nn(C)c2=O)cc1 [4-050]
Wild oat [1]
  herbicidal effect on I: wild oat (evaluation grade 0-5): 1 (Herbicidal rate of 5% or more and less than 20%)
Lambsquarters [2]
  herbicidal effect on O: lambsquarters (evaluation grade 0-5): 5 (Herbicidal rate of 90% or more (almost completely withered))
Lambsquarters [3]
  Herbicidal effect by soil treatment, O: lambsquarters: 3 (Herbicidal rate of 40% or more and less than 70%)
Japanese bulrush
  Herbicidal effect, B: Japanese bulrush: 0 (Herbicidal rate of 5% or less (almost no effect))
Rice flat sedge
  herbicidal effect on rice flat sedge (E): 4 (Herbicidal rate of 70% or more and less than 90%)
Barnyard grass [4]
  herbicidal effect on H: barnyard grass (evaluation grade 0-5): 5 (Herbicidal rate of 90% or more (almost completely withered))
Persian speedwell [5]
  Herbicidal effect by soil treatment, R: persian speedwell: 4 (Herbicidal rate of 70% or more and less than 90%)
Italian ryegrass [6]
  Herbicidal effect by soil treatment, K: Italian ryegrass: 1 (Herbicidal rate of 5% or more and less than 20%)
Southern crabgrass [7]
  Herbicidal effect by soil treatment, F: southern crabgrass: 2 (Herbicidal rate of 20% or more and less than 40%)
Persian speedwell [8]
  herbicidal effect on R: persian speedwell (evaluation grade 0-5): 5 (Herbicidal rate of 90% or more (almost completely withered))
Barnyard grass [9]
  herbicidal effect on barnyard grass (H): 5 (Herbicidal rate of 90% or more (almost completely withered))
Chickweed [10]
  herbicidal effect on P: chickweed (evaluation grade 0-5): 5 (Herbicidal rate of 90% or more (almost completely withered))
Velvetleaf [11]
  herbicidal effect on M: velvetleaf (evaluation grade 0-5): 5 (Herbicidal rate of 90% or more (almost completely withered))
Italian ryegrass [12]
  herbicidal effect on K: Italian ryegrass (evaluation grade 0-5): 4 (Herbicidal rate of 70% or more and less than 90%)
Blackgrass [13]
  Herbicidal effect by soil treatment, J: blackgrass: 0 (Herbicidal rate of 5% or less (almost no effect))
Windgrass [14]
  Herbicidal effect by soil treatment, L: windgrass: 0 (Herbicidal rate of 5% or less (almost no effect))
Chinese sprangletop
  herbicidal effect on Chinese sprangletop (D): 4 (Herbicidal rate of 70% or more and less than 90%)
Green foxtail [15]
  Herbicidal effect by soil treatment, G: green foxtail: 3 (Herbicidal rate of 40% or more and less than 70%)
Velvetleaf [16]
  Herbicidal effect by soil treatment, M: velvetleaf: 3 (Herbicidal rate of 40% or more and less than 70%)
Wild oat [17]
  Herbicidal effect by soil treatment, I: wild oat: 0 (Herbicidal rate of 5% or less (almost no effect))
Redroot pigweed [18]
  Herbicidal effect by soil treatment, N: redroot pigweed: 4 (Herbicidal rate of 70% or more and less than 90%)
Barnyard grass [19]
  Herbicidal effect by soil treatment, H: barnyard grass: 2 (Herbicidal rate of 20% or more and less than 40%)
Blackgrass [20]
  herbicidal effect on J: blackgrass (evaluation grade 0-5): 3 (Herbicidal rate of 40% or more and less than 70%)
Green foxtail [21]
  herbicidal effect on G: green foxtail (evaluation grade 0-5): 5 (Herbicidal rate of 90% or more (almost completely withered))
Late watergrass
  Herbicidal effect, A: late watergrass: 3 (Herbicidal rate of 40% or more and less than 70%)
Windgrass [22]
  herbicidal effect on L: windgrass (evaluation grade 0-5): 5 (Herbicidal rate of 90% or more (almost completely withered))
False cleavers
  Herbicidal effect by soil treatment, Q: false cleavers: 0 (Herbicidal rate of 5% or less (almost no effect))
Southern crabgrass [23]
  herbicidal effect on F: southern crabgrass (evaluation grade 0-5): 2 (Herbicidal rate of 20% or more and less than 40%)
oval-leafed pondweed
  Herbicidal effect, C: oval-leafed pondweed: 0 (Herbicidal rate of 5% or less (almost no effect))
Chickweed [24]
  Herbicidal effect by soil treatment, P: chickweed: 4 (Herbicidal rate of 70% or more and less than 90%)
Redroot pigweed [25]
  herbicidal effect on N: redroot pigweed (evaluation grade 0-5): 5 (Herbicidal rate of 90% or more (almost completely withered))
